Laboratory results from US4576942A, “Anti-allergic and anti-inflammatory bi- and tri- cyclo-1,4-thiazine derivatives, composition, and method of use therefor” (USV Pharmaceutical Corp., priority 1984, dated 1986).
Where two headings read alike, the source gives them in different places.

Legend:
5-lipoxygenase pathway = assay: Inhibitors of the Lipoxygenase Pathway (LOX), [14C]-5-HETE formation in rat neutrophils; format: cell-based; design: key to LOX degree of activity: I: inactive; L: low activity; M: moderate activity; H: high activity; conditions: for IC50: Neutrophil; for LOX degree of activity: class symbol in the LOX I50 column
Experimental: The following protocol describes an assay to detect inhibitors of the lipoxygenase pathway. Such inhibitors are believed to be capable of modulating the biosynthesis of the leukotrienes, a property believed to be useful in treating asthma and inflammatory disease states.
A suspension of rat neutrophils in buffer is incubated for 3 minutes at 30° C. with [^14 C]-arachidonic acid (AA) and Calcium Ionophore A23187. Citric Acid (2M) is used to quench the reaction. Following the addition of a trace amount of (^3 H)-5-HETE together with an excess of unlabeled 5-HETE to each tube, the mixture is extracted with chloroform/methanol. The organic layer is washed with dilute acid and an aliquot is transferred to glass tubes and dried. The residue is dissolved in a small volume of chloroform and an aliquot is spotted on silica gel TLC sheets, which are developed with an ethyl acetate/isoctane/water/acetic acid solvent system. The 5-HETE spots are visualized with iodine, cut out and placed in scintillation vials for counting. After adjusting for the extraction efficiency, the amount (pmole) of [^14 C]-5-HETE in each of the tubes is quantitated. The net pmoles of 5-HETE are obtained by substracting the pmoles of 5-HETE in the tubes containing buffer alone (blank) for the pmoles of 5-HETE in the tubes containing […]. The ability of the test compounds to modulate the activity of this enzyme is determined by a decrease or increase in the net amount of 5-HETE produced.

[1] = system: leukotriene C4-induced contraction of guinea pig peripheral strips; assay: SRS-A (slow-reacting substance of anaphylaxis) antagonists, leukotriene C4-induced contraction of guinea pig peripheral lung strips; format: cell-based; design: key to SRS-A degree of inhibitory activity: I: inactive; L: low activity; M: moderate activity; H: high activity; conditions: for IC50: Cavia porcellus, 0.2 nM leukotriene C4, 37° C., read-out: SRS-A I50 (concentration required for 50% inhibition of 0.2 nM leukotriene C4-induced contraction); for SRS-A degree of inhibitory activity: 0.2 nM leukotriene C4, class symbol in the SRS-A I50 column
Experimental: Leukotrienes, the products of the 5-lipoxygenase pathway of arachidonic acid metabolism, are potent contractile agents with a variety of smooth muscle preparations. […] The following protocol describes an in vitro assay used to test compounds which specifically antagonize the actions of leukotrienes.
Peripheral strips of guinea pig lungs are prepared and hung in tissue baths (Metro # ME-5505, 10 ml) according to the published procedure (Proc. Nat'l Acad. Sci, U.S.A. Volume 77, pp. 4354-4358, 1980). The strips are thoroughly rinsed in Assay Buffer and then connected with surgical silk thread to the support rods from the tissue baths. The rods are adjusted in the baths and the strips connected to the pressure transducers (Grass FT 103 or Gould UC-3). The tissue baths are aerated with 95% oxygen-5% carbon dioxide and maintained at 37° C. The Assay Buffer has been made as follows: For each liter of buffer the following are added to approximately 800 ml of water distilled in glass--6.87 g. NaCl, 0.4 g. KCl, 2.1 g. NaHCO3, 0.14 g, NaH2 PO4.H2 O, 0.21 g. MgSO4.7H2 O, and 2.0 g. D-glucose. Then a solution of 0.368 g. CaCl2.2H2 O in 100 ml glass-distilled water is slowly added to the buffer. Sufficient water is added to adjust the volume to one liter, and the solution is aerated with 95% oxygen-5% carbon dioxide. Usually 10 liters of buffer are used for an experiment with 4 tissues.
After the tissues have been repeatedly washed and allowed to equilibrate in the tissue bath, they are challenged with 1 uM histamine. After maximum contractions have been obtained, the tissues are washed, and allowed to relax back to baseline tension. This histamine challenge procedure is repeated at least 1 to 2 more times to obtain a repeatable control response. The average response to 1 uM histamine for each tissue is used to normalize all other challenges.
Responses of each tissue to a pre-determined concentration of leukotriene are then obtained. Usually test compounds are examined initially at 30 uM on resting tension of the tissues without any added agonist or antagonist to determine if the compound has any possible intrinsic activity. The tissues are washed, and the test compound is added again. Leukotriene is added after the desired pre-incubation time. The intrinsic activity of the compounds, and their effect on leukotriene-induced contractions are then recorded.
The concentration required for 50% inhibition of 0.2 nM leukotriene C4 -induced contraction of guinea pig peripheral strips or degree of inhibitory activity for representative compounds of the present invention is shown in Table I denoted by SRS-A.

[2] = system: SRS-A (slow reacting substances of anaphylaxis), anaphylactic bronchoconstriction in guinea pigs; assay: in vivo modulators of SRS-A: Bronchial Anaphylaxis in Guinea Pigs with Enhanced Leukotrines (BAGEL); design: species or system guinea pig; key: I: inactive; L: low activity; M: moderate activity; H: high activity; conditions: 15 min before ovalbumin challenge
Experimental: Representative compounds of the present invention were also tested in the following in vivo model.
This test, known as the Bronchial Anaphylaxis in Guinea Pigs with Enhanced Leukotrines (BAGEL), is based on the procedure published in Agents and Actions, Vol. 11, pp. 396-401, 1981, and is performed with guinea pigs actively immunized (14 days) with ovalbumin (2.7 mg/kg, i.p.) and B.pertussis (5×10^9 organisms) as an adjuvant. Prior to challenge with antigen (ovalbumin), the animals are anesthetized and prepared for monitoring pulmonary dynamics by whole body plethysmography. They are treated with an H1 antihistamine (methapyrilene, 2 mg/kg, i.v.) and cyclooxygenase inhibitor (indomethacin; 20 mg/kg, i.p.) in order to enhance the SRS-A component of anaphylactic bronchoconstriction. Bronchoconstriction is quantified as the maximum increase in airway resistance following antigen challenge. The drug is administered either i.p. 10 minutes before challenge, or i.d. 15 minutes before challenge.

[3] = system: Human PMN (5-lipoxygenase pathway); assay: LOX, Human PMN; format: cell-based; design: key to LOX degree of activity, Human PMN: I: inactive; L: low activity; M: moderate activity; H: high activity
[4] = arachidonic acid + Ca ionophore A23187, 30° C., read-out: LOX I50 (concentration required for 50% inhibition of the 5-lipoxygenase pathway)

| IC50 (5-lipoxygenase pathway; [4]) | IC50 [1] | Compound | SRS-A degree of inhibitory activity [1] | LOX degree of activity (5-lipoxygenase pathway) | other results |
| --- | --- | --- | --- | --- | --- |
| 1.6 µM | 18 µM | O=C(C=C1CSc2ccccc2N1)Nc1ccccc1 |  |  |  |
| 1.7 µM |  | CCOC(=O)C(Cl)=C1CSc2ccccc2N1 | M |  | BAGEL activity ([2]; 200 mg/kg i.d.): L |
|  |  | CCOC(=O)C=C(C(=O)OCC)C(C(=O)OCC)=C1CSc2ccccc2N1 | I |  | LOX degree of activity, Human PMN ([3]; Human PMN, 135 μM): L; BAGEL activity ([2]; 30 mg/kg i.d.): H; IC50 (5-lipoxygenase pathway; cell prints 3μ .M, read-out: LOX I50, unit printed in the cell): 3 µM |
| 12 µM |  | CCOC(=O)c1c2csc3ccccc3n-2c(=O)c1O | I |  |  |
|  | 25 µM | N#CC(C(N)=O)=C1CSc2ccccc2N1 |  | I |  |
|  |  | O=C(C=C1CSc2ccccc2N1)Nc1ccccc1Cl |  | M |  |
| 1.2 µM | 20 µM | CCOC(=O)C(Cl)=C1CSc2ncccc2N1 |  |  | IC50 ([3]; Homo sapiens, read-out: LOX I50, Human PMN): 1 µM; BAGEL activity ([2]; 200 mg/kg i.d.): M-H |
|  |  | CCOC(=O)C=C1CSc2ccccc2N1 | M | I |  |
